Molecules are shown by their SMILES.

The test system of data set [1] is human leukemia cell line (HL-60). Briefly: Differentiation with low concentration 1,25-(OH)2D3 or ATRA, NBT reduction method. In kind it is cell-based. The procedure:
(§1) For measuring the differentiation inducing effect to acute bone merrow leukemia cell line (HL-60) by indirubin AGM compound, NBT (nitroblue tetrazolium) reduction reaction method is employed. The leukemia cell line is diluted into 2×10^5 cfu/ml. After treating 20 μM and 1 μM concentrations of test compounds, test plate is incubated for 3 days at 37° C. in 5% CO2 incubator. Incubated cells are washed with phosphate buffered saline (PBS). Then, they are further incubated in PBS solution containing 0.1% NBT and 200 ng/ml of PMA (phorbol 12-myristate 13-acetate) for 30 minutes at 37° C. Incubated cells are centrifuged and collected cells are washed with PBS solution. Using cell number counter, differentiated cells forming nitroblue formazan among total cells are counted.
Next, we test if AGM compound of present invention can synergically induce the differentiation of acute bone merrow leukemia cell line when it is treated with low concentration of 1,25-dihydroxyvitamin D3[1,25-(OH)2D3] or all-trans retinoic acid (ATRA) known as differentiation inducing agent. […] […] As a positive control, conventional differentiation inducing agent is used.

For data set [2], the system named is human stomach cancer cell line (SNU-638). The experiment in a line: Inhibition of cancer cell line proliferation, SNU-638. The class given is cell-based. To be noted: 96 h, 3˜4 days incubation, absorbance at 515 nm. The procedure:
(§2) For measuring the proliferation inhibition by indirubin compound, the method disclosed in K. Likhitwitayawuid et al. Journal. Nat. Prod. […] Followings are simple description of this method. The cancer cell line is diluted into 5×10^4 cfu/ml. Then, various concentrations of test compounds are added to 96 well microtiter plate containing diluted cell line. After incubating test plate for 3˜4 days at 37° C., the test plate is dried and Tris-base is added. Then, using ELISA plate detector, the absorbance at 515 nm is measured. IC50 is measured by non-linear regression method.

Data set [3] relates to leukemia cell line (HL-60). The experiment in a line: Differentiation inducing effect, NBT reduction method. The class given is cell-based, human. Particulars: for % of Differentiation: 3 days. The procedure: as §1, with “After treating 20 μM and 1 μM concentrations of test compounds, test plate is incubated for 3 days at 37° C. in 5% CO2 incubator.” left out
For data set [4], the system named is human leukemia cell line (HL-60). The experiment in a line: Inhibition of cancer cell line proliferation, HL-60. To be noted: HL-60, 96 h, HL60, 3˜4 days incubation, absorbance at 515 nm. In kind it is cell-based. The method, then: as §2
For data set [5], the system named is human cancer cell line. The experiment in a line: Inhibition of cancer cell line proliferation, overall conclusion. In kind it is cell-based. Particulars: conclusion from Table 2. The method, then:
as §2

The test system of data set [6] is human lung cancer cell line (A549). Briefly: Inhibition of cancer cell line proliferation, A549. Particulars: 96 h, 3˜4 days incubation, absorbance at 515 nm. In kind it is cell-based. The method, then: as §2
Data set [7] has as its system human abdominal cavity cancer cell line (HT 1080). The experiment in a line: Inhibition of cancer cell line proliferation, HT 1080. In kind it is cell-based. Particulars: HT-1080, 96 h, HT108, 3˜4 days incubation, absorbance at 515 nm. The method, then: as §2
The subject of data set [8] is human colon cancer cell line (Col2). Briefly: Inhibition of cancer cell line proliferation, Col2. In kind it is cell-based. Particulars: 96 h, 3˜4 days incubation, absorbance at 515 nm. The method, then:
as §2

Data set [9] relates to human cell line (HT 1080). The experiment in a line: Inhibition of cancer cell line proliferation, HT 1080. The class given is cell-based. To be noted: HT-1080, 96 h, read-out: IC50 HT108. The method, then:
as §2

Setting [10] is: 1 μM compound with 5 nM of 1,25-(OH)2D3.
[11] abbreviates: 1 μM compound with 50 nM of ATRA.

In the case of `O=C1Nc2ccc(Cl)cc2C1=C1Nc2ccccc2C1=NO` [AGM014, 5′-chloro-1H,1′H-[2,3′] biindolylidene-3,2′-dione 3-oxime], the “% of Differentiation, 1,25-(OH)2D3” value in [1] (setting [10]) was 21.72 ± 1.22%. For the same compound, the “% of Differentiation, all-trans RA” value in data set [1] (setting [11]) is 72.40 ± 3.05%. Moreover, the half-inhibitory concentration (IC50) in data set [2] was 6.22 µM; in data set [4], 4.81 µM; in data set [6] it was 12.1 µM; in data set [7], 10.8 µM; in data set [8], 16.8 µM. The “% of Differentiation” value in data set [3] (1 μM compound) amounted to 40.97 ± 1.19%. Besides, the “inhibitor against proliferation of human cancer cell line” value (“inhibitor against proliferation” below) in data set [5] is given as “effective inhibitor”.

Turning to `Cc1cc(Cl)cc2c1NC(=O)C2=C1Nc2ccccc2C1=NO` [AGM017, 5′-chloro-7′-methyl-1H,1′H-[2,3′] biindolylidene-3,2′-dione 3-oxime], the “% of Differentiation, 1,25-(OH)2D3” value in data set [1] (setting [10]) worked out at 22.10 ± 0.90%. In addition, the “% of Differentiation, all-trans RA” value in [1] (setting [11]) stood at 43.17 ± 1.56%. The IC50 in data set [2], in [4], in [6], in data set [9] and in data set [8] was over 100 µM in each case. Further, the “% of Differentiation” value in data set [3] (1 μM compound) is recorded as 8.37 ± 0.45%; in [3] (20 μM compound) it was 2.62 ± 0.23%.

With `O=C1Nc2ccc([N+](=O)[O-])cc2C1=C1Nc2ccc(Br)cc2C1=NO` [AGM023, 5-bromo-5′-nitro-1H,1′H-[2,3′] biindolylidene-3,2′-dione 3-oxime], in [1], the “cytotoxicity” value is “some cytotoxicity”. For the same compound, in [1] (0.2 μM), the “induction of differentiation with conventional differentiation inducing agent” value is “high induction of differentiation”. The “% of Differentiation, 1,25-(OH)2D3” value in data set [1] (0.2 μM compound with 5 nM of 1,25-(OH)2D3) stood at 89.76 ± 0.88%. Moreover, the “% of Differentiation, all-trans RA” value in [1] (0.2 μM compound with 50 nM of ATRA) was 90.85 ± 0.36%. For the same compound, the IC50 in [2] was 12.1 µM; in [4], 69.3 µM; in data set [6], 23.2 µM; in data set [7], 4.41 µM; in data set [8], 44.2 µM. Further, in [3] (0.2 μM compound), the “% of Differentiation” value was found to be 18.38 ± 0.27%. In addition, the “inhibitor against proliferation” value in [5] was “effective inhibitor”.

Take `Cc1ccc2c(c1)C(=C1Nc3ccccc3C1=O)C(=O)N2` [AGM024, 5′-methyl-1H,1′H-[2,3′] biindolylidene-3,2′-dione]: the “% of Differentiation, 1,25-(OH)2D3” value in data set [1] (setting [10]) worked out at 41.66 ± 0.40%. Moreover, the “% of Differentiation, all-trans RA” value in data set [1] (setting [11]) is recorded as 51.01 ± 0.88%. For the same compound, the IC50 in data set [2], in data set [4], in [6], in [9] and in data set [8] was over 100 µM throughout. Besides, the “% of Differentiation” value came out at 24.89 ± 6.06% in data set [3] (1 μM compound) and 14.38 ± 0.42% in [3] (20 μM compound).

Regarding `O=C1Nc2ccc(Cl)cc2C1=C1Nc2ccccc2C1=O` [AGM025, 5′-chloro-1H,1′H-[2,3′] biindolylidene-3,2′-dione], in data set [1] (setting [10]), the “% of Differentiation, 1,25-(OH)2D3” value is reported as 49.41 ± 0.08%. Further, the “% of Differentiation, all-trans RA” value in data set [1] (setting [11]) was determined as 48.39 ± 1.48%. Moreover, the IC50 in [2], in [4], in data set [6], in data set [9] and in data set [8] was over 100 µM throughout. The “% of Differentiation” value in [3] (1 μM compound) was found to be 26.18 ± 0.59%; in data set [3] (20 μM compound), 14.40 ± 0.82%.

On to `O=C1Nc2ccc(I)cc2C1=C1Nc2ccccc2C1=O` [AGM026, 5′-iodo-1H,1′H-[2,3′] biindolylidene-3,2′-dione], for which the “% of Differentiation, 1,25-(OH)2D3” value in data set [1] (setting [10]) is 44.43 ± 0.09%. Moreover, in data set [1] (setting [11]), the “% of Differentiation, all-trans RA” value is 60.33 ± 0.51%. The IC50 in data set [2], in [4], in data set [6], in data set [9] and in [8] was over 100 µM throughout. For the same compound, the “% of Differentiation” value was found to be 29.84 ± 1.12% in data set [3] (1 μM compound) and 22.23 ± 0.60% in data set [3] (20 μM compound).

On to `Cc1cc(C)c2c(c1)C(=C1Nc3ccccc3C1=O)C(=O)N2` [AGM027, 5′,7′-dimethyl-1H,1′H-[2,3′] biindolylidene-3,2′-dione], for which the “% of Differentiation, 1,25-(OH)2D3” value in data set [1] (setting [10]) stood at 21.74 ± 1.90%. In addition, the “% of Differentiation, all-trans RA” value in [1] (setting [11]) is 43.19 ± 1.73%. Also, the IC50 in data set [2], in data set [4], in data set [6], in data set [9] and in data set [8] was over 100 µM throughout. Moreover, the results for the “% of Differentiation” value in [3] (1 μM compound) and in [3] (20 μM compound) were 9.45 ± 0.92% and 4.75 ± 0.41%, respectively.

As to `Cc1cc(Cl)cc2c1NC(=O)C2=C1Nc2ccccc2C1=O` [AGM028, 5′-chloro-7′-methyl-1H,1′H-[2,3′] biindolylidene-3,2′-dione], the “% of Differentiation, 1,25-(OH)2D3” value in data set [1] (setting [10]) was 35.22 ± 0.55%. Besides, the “% of Differentiation, all-trans RA” value in data set [1] (setting [11]) is reported as 55.57 ± 1.11%. The IC50 in data set [2], in data set [4], in [6], in [9] and in [8] was over 100 µM throughout. Besides, the results for the “% of Differentiation” value in data set [3] (1 μM compound) and in data set [3] (20 μM compound) were 8.85 ± 2.20% and 0.70 ± 0.16%, respectively.

Turning to `Nc1ccc2c(c1)C(=C1Nc3ccccc3C1=O)C(=O)N2` [AGM029, 5′-amino-1H,1′H-[2,3′] biindolylidene-3,2′-dione], the “% of Differentiation, 1,25-(OH)2D3” value in data set [1] (setting [10]) amounted to 79.03 ± 0.55%. Also, the “% of Differentiation, all-trans RA” value in data set [1] (setting [11]) was determined as 78.81 ± 0.77%. For the same compound, the IC50 is 21.1 µM in data set [2]; 59.3 µM in [4]; 33.2 µM in [6]; 5.41 µM in data set [9]; 31.2 µM in [8]. Also, the “% of Differentiation” value in data set [3] (1 μM compound) was 45.05 ± 0.59%. For the same compound, the “induction of differentiation” value in [3] (at 20 μM concentration) was “excellently induces the differentiation”. Moreover, the “inhibitor against proliferation” value in data set [5] was “effective inhibitor”.

The values above are taken from patent US7572923B2, “Indirubin derivatives having anticancer property against human cancer cell line” (Anygen Co., Ltd., priority 2004, dated 2009).
